Results on 31 molecules are retold here after patent publication US9555039B2, “Piperidine derivatives and compositions for the inhibition of nicotinamide phosphoribosyltransferase (NAMPT)” (Forma TM, LLC., priority 2011, dated 2017).

The target of test [1] is T1, Recombinant His-tagged NAMPT (Homo sapiens, UniProt P43490).
T1 construct: His; host or cells: E. coli
The test is described as follows: Biochemical inhibition assay: NAMPT enzymatic reaction, NMN quantified by mass spectrometry. The settings on record: 33 nM NAMPT, 1 μM NAM, 100 μM PRPP, 2.5 mM ATP, 30 minutes at room temperature; read-out: Biochem IC50. In short, it runs like this:
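Reaction 30 min at room temperature with 1 μM NAM, 100 μM PRPP, 2.5 mM ATP (final), quenched with formic acid. NMN quantified by RapidFire electrospray MS, normalized to L-cystathionine; IC50 from percent inhibition versus DMSO.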

The subject of the next test is A2780 cells. The test is described as follows: In-vitro cell proliferation assay (SRB, 72 hours). In kind it is cell-based. The settings on record: Homo sapiens, sulforhodamine B (SRB) assay. In outline:
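Viable cells measured by TCA fixation and SRB staining, absorbance 570 nm; % inhibition vs DMSO control after media-only background subtraction, interpolated between two bracketing concentrations.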

T1 sequence (P43490 whole entry): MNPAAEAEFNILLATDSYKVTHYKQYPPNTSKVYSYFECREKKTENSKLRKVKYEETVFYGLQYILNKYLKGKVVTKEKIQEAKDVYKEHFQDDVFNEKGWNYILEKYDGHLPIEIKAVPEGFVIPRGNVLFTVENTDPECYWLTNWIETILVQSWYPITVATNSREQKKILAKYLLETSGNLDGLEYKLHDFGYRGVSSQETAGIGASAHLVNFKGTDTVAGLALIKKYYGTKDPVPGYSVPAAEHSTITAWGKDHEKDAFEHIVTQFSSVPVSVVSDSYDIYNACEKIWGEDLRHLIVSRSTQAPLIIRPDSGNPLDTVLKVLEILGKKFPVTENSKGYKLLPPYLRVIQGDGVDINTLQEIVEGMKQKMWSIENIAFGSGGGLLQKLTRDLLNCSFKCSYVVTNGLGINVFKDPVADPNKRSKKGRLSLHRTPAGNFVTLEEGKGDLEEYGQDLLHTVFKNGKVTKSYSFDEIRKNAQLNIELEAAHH

In general, IC50 refers to the concentration that gives 50% inhibition. As for `Cc1cccc(C(=O)N2CCC(CCCCNC(=O)c3ccc4nccn4c3)CC2)c1F` [N-(4-{1-[(2-fluoro-3-methylphenyl)carbonyl]piperidin-4-yl}butyl)imidazo[1,2-a]pyridine-6-carboxamide], the results for the IC50 (in test [1]; in the test on A2780 cells) were 22.6 nM and 12.7 nM, respectively.

As for `O=C(NCCCCC1CCN(C(=O)c2cnc(C(F)(F)F)nc2)CC1)c1cc2cnccc2[nH]1` [N-[4-(1-{[2-(trifluoromethyl)pyrimidin-5-yl]carbonyl}piperidin-4-yl)butyl]-1H-pyrrolo[3,2-c]pyridine-2-carboxamide], the 50% inhibitory concentration (IC50) in test [1] is 242 nM; in the test on A2780 cells, 100 to 1000 nM.

On to `COc1cccc(C(=O)N2CCC(CCCCNC(=O)c3cc4cnccc4[nH]3)CC2)c1OC` [N-(4-{1-[(2,3-dimethoxyphenyl)carbonyl]piperidin-4-yl}butyl)-1H-pyrrolo[3,2-c]pyridine-2-carboxamide], for which the half-inhibitory concentration (IC50) amounted to 20.8 nM in test [1] and 1.9 nM in the test on A2780 cells.

As to `CSc1ncccc1C(=O)N1CCC(CCCCNC(=O)c2ccc3nccn3c2)CC1` [N-[4-(1-{[2-(methylsulfanyl)pyridin-3-yl]carbonyl}piperidin-4-yl)butyl]imidazo[1,2-a]pyridine-6-carboxamide], the results for the half-maximal inhibitory concentration (IC50) (in test [1]; in the test with A2780 cells) were 5.5 nM and 0.7 nM, respectively.

Take `Cc1ccc(F)cc1C(=O)N1CCC(CCCCNC(=O)c2cc3ccncc3s2)CC1` [N-(4-{1-[(5-fluoro-2-methylphenyl)carbonyl]piperidin-4-yl}butyl)thieno[2,3-c]pyridine-2-carboxamide]: the IC50 was 4.5 nM in test [1] and 1.8 nM in the test on A2780 cells.

As for `O=C(NCCCCC1CCN(C(=O)c2ccc3cc[nH]c3c2)CC1)c1ccc2nccn2c1` [N-(4-{1-[(1H-indol-6-yl)carbonyl]piperidin-4-yl}butyl)imidazo[1,2-a]pyridine-6-carboxamide], the concentration for half-maximal inhibition (IC50) in test [1] came out at 29.8 nM; in the test on A2780 cells, 14.9 nM.

For `CC(C)c1ccc(C(=O)N2CCC(CCCCNC(=O)c3ccc4nccn4c3)CC2)nc1` [N-[4-(1-{[5-(propan-2-yl)pyridin-2-yl]carbonyl}piperidin-4-yl)butyl]imidazo[1,2-a]pyridine-6-carboxamide], the IC50 in test [1] turned out to be 56.7 nM; in the test on A2780 cells, 52.9 nM.

`O=C(NCCCCC1CCN(S(=O)(=O)c2ccc(C(F)(F)F)cc2)CC1)c1cc2cnccc2[nH]1` [N-[4-(1-{[4-(trifluoromethyl)benzene]sulfonyl}piperidin-4-yl)butyl]-1H-pyrrolo[3,2-c]pyridine-2-carboxamide]: the IC50 in test [1] was determined as 74.8 nM; with A2780 cells, 23.3 nM.

Regarding `O=C(NCCCCC1CCN(C(=O)c2cccc(F)c2F)CC1)c1ccc2nccn2c1` [N-(4-{1-[(2,3-difluorophenyl)carbonyl]piperidin-4-yl}butyl)imidazo[1,2-a]pyridine-6-carboxamide], the half-maximal inhibitory concentration (IC50) in test [1] is 7.9 nM; in the test with A2780 cells it was 10.1 nM.

`O=C(NCCCCC1CCN(C(=O)c2ccccn2)CC1)c1cc2cnccc2[nH]1` [N-(4-{1-[(pyridin-2-yl)carbonyl]piperidin-4-yl}butyl)-1H-pyrrolo[3,2-c]pyridine-2-carboxamide]: the results for the IC50 (in test [1]; in the test with A2780 cells) were 30.6 nM and 6.3 nM, respectively.

Take `O=C(NCCCCC1CCN(C(=O)c2cc(Cl)ccc2Cl)CC1)c1ccc2nccn2c1` [N-(4-{1-[(2,5-dichlorophenyl)carbonyl]piperidin-4-yl}butyl)imidazo[1,2-a]pyridine-6-carboxamide]: the IC50 stood at 10.2 nM in test [1] and 5.5 nM with A2780 cells.

On to `O=C(NCCCCC1CCN(C(=O)c2ccc(F)c(F)c2)CC1)c1cc2ccncc2s1` [N-(4-{1-[(3,4-difluorophenyl)carbonyl]piperidin-4-yl}butyl)thieno[2,3-c]pyridine-2-carboxamide], for which the results for the 50% inhibitory concentration (IC50) (in test [1]; in the test with A2780 cells) were 22.9 nM and 100 to 1000 nM, respectively.

Take `COc1ccc(OC)c(C(=O)N2CCC(CCCCNC(=O)c3ccc4nccn4c3)CC2)c1` [N-(4-{1-[(2,5-dimethoxyphenyl)carbonyl]piperidin-4-yl}butyl)imidazo[1,2-a]pyridine-6-carboxamide]: the IC50 stood at 42.9 nM in test [1] and 1.9 nM in the test on A2780 cells.

As for `CC(C)c1ccc(C(=O)N2CCC(CCCCNC(=O)c3ccc4nccn4c3)CC2)cn1` [N-[4-(1-{[6-(propan-2-yl)pyridin-3-yl]carbonyl}piperidin-4-yl)butyl]imidazo[1,2-a]pyridine-6-carboxamide], the 50% inhibitory concentration (IC50) in test [1] stood at 38.7 nM; in the test on A2780 cells, 26.1 nM.

Regarding `O=C(NCCCCC1CCN(C(=O)c2ccoc2)CC1)c1ccc2nccn2c1` [N-(4-{1-[(furan-3-yl)carbonyl]piperidin-4-yl}butyl)imidazo[1,2-a]pyridine-6-carboxamide], the IC50 in test [1] is 6.2 nM; in the test on A2780 cells it was 25.6 nM.

For the molecule `Cn1c(C(=O)N2CCC(CCCCNC(=O)c3cc4ccncc4s3)CC2)cc2ccccc21` [N-(4-{1-[(1-methyl-1H-indol-2-yl)carbonyl]piperidin-4-yl}butyl)thieno[2,3-c]pyridine-2-carboxamide], the results for the half-maximal inhibitory concentration (IC50) (in test [1]; with A2780 cells) were 65 nM and 100 to 1000 nM, respectively.

`O=C(NCCCCC1CCN(C(=O)c2ccc3ncsc3c2)CC1)c1ccc2nccn2c1` [N-(4-{1-[(1,3-benzothiazol-6-yl)carbonyl]piperidin-4-yl}butyl)imidazo[1,2-a]pyridine-6-carboxamide]: the IC50 in test [1] was found to be 23.7 nM; in the test with A2780 cells, 39.3 nM.

Take `CC(C)c1ccc(C(=O)N2CCC(CCCCNC(=O)c3cc4cnccc4[nH]3)CC2)nc1` [N-[4-(1-{[5-(propan-2-yl)pyridin-2-yl]carbonyl}piperidin-4-yl)butyl]-1H-pyrrolo[3,2-c]pyridine-2-carboxamide]: the half-inhibitory concentration (IC50) worked out at 163 nM in test [1] and 14.1 nM with A2780 cells.

Regarding `Cc1ccc(F)cc1C(=O)N1CCC(CCCCNC(=O)c2cc3cnccc3[nH]2)CC1` [N-(4-{1-[(5-fluoro-2-methylphenyl)carbonyl]piperidin-4-yl}butyl)-1H-pyrrolo[3,2-c]pyridine-2-carboxamide], the IC50 in test [1] worked out at 14.2 nM; with A2780 cells it was 2.3 nM.

As for `O=C(NCCCCC1CCN(C(=O)c2ccc(OC(F)F)cc2)CC1)c1ccc2nccn2c1` [N-[4-(1-{[4-(difluoromethoxy)phenyl]carbonyl}piperidin-4-yl)butyl]imidazo[1,2-a]pyridine-6-carboxamide], the IC50 is 42.7 nM in test [1] and 101 nM in the test on A2780 cells.

`COc1cc(Cl)ccc1C(=O)N1CCC(CCCCNC(=O)c2cc3ccncc3s2)CC1` [N-(4-{1-[(4-chloro-2-methoxyphenyl)carbonyl]piperidin-4-yl}butyl)thieno[2,3-c]pyridine-2-carboxamide]: the figures for the IC50 (in test [1]; with A2780 cells) were 15.5 nM and 13 nM, respectively.

With `O=C(NCCCCC1CCN(C(=O)c2cccnc2)CC1)c1cc2ccncc2s1` [N-(4-{1-[(pyridin-3-yl)carbonyl]piperidin-4-yl}butyl)thieno[2,3-c]pyridine-2-carboxamide], the figures for the IC50 (in test [1]; in the test with A2780 cells) were 11.1 nM and 27.4 nM, respectively.

As to `O=C(NCCCCC1CCN(C(=O)c2cc3cnccc3[nH]2)CC1)c1cc2cnccc2[nH]1` [N-{4-[1-({1H-pyrrolo[3,2-c]pyridin-2-yl}carbonyl)piperidin-4-yl]butyl}-1H-pyrrolo[3,2-c]pyridine-2-carboxamide], the IC50 in test [1] amounted to 20.9 nM; in the test on A2780 cells it was 11.3 nM.

Regarding `O=C(NCCCCC1CCN(C(=O)c2c(F)cccc2F)CC1)c1cc2cnccc2[nH]1` [N-(4-{1-[(2,6-difluorophenyl)carbonyl]piperidin-4-yl}butyl)-1H-pyrrolo[3,2-c]pyridine-2-carboxamide], the IC50 was found to be 7.3 nM in test [1] and 1.4 nM in the test on A2780 cells.

Regarding `COc1ccc(C(=O)N2CCC(CCCCNC(=O)c3ccc4nccn4c3)CC2)cc1` [N-(4-{1-[(4-methoxyphenyl)carbonyl]piperidin-4-yl}butyl)imidazo[1,2-a]pyridine-6-carboxamide], the IC50 was 23.2 nM in test [1] and 57.6 nM with A2780 cells.

With `O=C(NCCCCC1CCN(C(=O)c2cc3ccccc3[nH]2)CC1)c1cc2cnccc2[nH]1` [N-(4-{1-[(1H-indol-2-yl)carbonyl]piperidin-4-yl}butyl)-1H-pyrrolo[3,2-c]pyridine-2-carboxamide], the half-maximal inhibitory concentration (IC50) in test [1] came to 125 nM; in the test with A2780 cells it was 60.3 nM.

As for `O=C(NCCCCC1CCN(C(=O)c2ccc(Cl)cc2Cl)CC1)c1cc2cnccc2[nH]1` [N-(4-{1-[(2,4-dichlorophenyl)carbonyl]piperidin-4-yl}butyl)-1H-pyrrolo[3,2-c]pyridine-2-carboxamide], the IC50 was 70 nM in test [1] and 12 nM in the test with A2780 cells.

`O=C(NCCCCC1CCN(C(=O)c2cccc(Cl)c2Cl)CC1)c1cc2cnccc2[nH]1` [N-(4-{1-[(2,3-dichlorophenyl)carbonyl]piperidin-4-yl}butyl)-1H-pyrrolo[3,2-c]pyridine-2-carboxamide]: the IC50 in test [1] came out at 31.2 nM; in the test on A2780 cells it was 3.2 nM.

Regarding `O=C(NCCCCC1CCN(C(=O)c2ccc(C(F)(F)F)cn2)CC1)c1cc2cnccc2[nH]1` [N-[4-(1-{[5-(trifluoromethyl)pyridin-2-yl]carbonyl}piperidin-4-yl)butyl]-1H-pyrrolo[3,2-c]pyridine-2-carboxamide], the concentration for half-maximal inhibition (IC50) in test [1] was 137 nM; with A2780 cells, 59.6 nM.

For `COc1ccccc1C(=O)N1CCC(CCCCNC(=O)c2cc3cnccc3[nH]2)CC1` [N-(4-{1-[(2-methoxyphenyl)carbonyl]piperidin-4-yl}butyl)-1H-pyrrolo[3,2-c]pyridine-2-carboxamide], the half-maximal inhibitory concentration (IC50) in test [1] came to 14.4 nM; in the test on A2780 cells, 1.9 nM.

With `O=C(NCCCCC1CCN(C(=O)c2csc(C(F)(F)F)n2)CC1)c1cc2ccncc2s1` [N-[4-(1-{[2-(trifluoromethyl)-1,3-thiazol-4-yl]carbonyl}piperidin-4-yl)butyl]thieno[2,3-c]pyridine-2-carboxamide], the IC50 is 94 nM in test [1] and 100 to 1000 nM in the test on A2780 cells.
